Data published in patent publication US8030354B2, “Substituted biphenyl GPR40 modulators” (Amgen Inc., priority 2007, dated 2011).
pEC50: −log10 of the molar value.

Columns and labels:
GPR40 [1] = target: T1, GPR40 (Homo sapiens, UniProt O14842); assay: Cell-based aequorin assay (CHO cells stably expressing GPR40 and aequorin); set-up: expressed in transfected cells; host or cells: CHO cells stably transfected with GPR40 and aequorin; conditions: activation of human GPR40, CHO cells, 0.01% HSA
In short: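 CHO cells stably co-expressing GPR40 and aequorin, loaded with coelenterazine (1 ug/mL, 2 h, room temperature) in H/HBSS with 20 mM Hepes and 0.01% fatty acid-free HSA. Serially diluted compounds added; luminescence recorded over 20 s. EC50 from dose-response of maximum relative light units.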

GPR40 [2] = target: T1, GPR40; assay: Inositol phosphate accumulation assay (A9_GPR40 cells); type: cell-based; set-up: expressed in transfected cells; host or cells: CHO cells stably transfected with GPR40 and aequorin; conditions: inositol phosphate assay, A9_GPR40 cells, 1 hour; read-out: IP3 EC50
In short: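 A9 cells stably expressing GPR40 were labelled 16 h with 1 μCi/mL ^3H-inositol in inositol-free DMEM with dialysed FBS. Compounds in HBSS/10 mM LiCl with HSA were applied for 1 h at 37° C, then quenched with 20 mM formic acid. Accumulated [^3H] inositol phosphates were counted by SPA.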

T1 sequence (O14842 whole entry): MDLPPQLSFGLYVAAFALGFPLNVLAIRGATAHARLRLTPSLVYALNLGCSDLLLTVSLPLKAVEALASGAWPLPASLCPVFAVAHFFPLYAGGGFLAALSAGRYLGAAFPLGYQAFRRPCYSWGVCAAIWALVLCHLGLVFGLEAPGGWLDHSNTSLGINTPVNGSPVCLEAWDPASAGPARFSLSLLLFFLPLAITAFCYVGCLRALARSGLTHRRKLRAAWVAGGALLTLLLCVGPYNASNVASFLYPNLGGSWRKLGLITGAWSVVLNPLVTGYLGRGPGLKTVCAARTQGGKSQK

Compound | pEC50 (GPR40 [1]) | pEC50 (GPR40 [2])
CCC(CC(=O)O)c1cccc(NCc2ccc(-c3cc(OC)ccc3F)c(C3=CCCC3(C)C)c2)c1 (single isomer, unassigned) [Example 81, (3R)-3-(3-(((2-(5,5-Dimethyl-1-cyclopenten-1-yl)-2′-fluoro-5′-(methyloxy)-1,1′-biphenyl-4-yl)methyl)amino)phenyl)pentanoic acid or (3S)-3-(3-(((2-(5,5-dimethyl-1-cyclopenten-1-yl)-2′-fluoro-5′-(methyloxy)-1,1′-biphenyl-4-yl)methyl)amino)phenyl)pentanoic acid] | 6.00 to 7.00 | < 5.00
CC[C@H](CC(=O)O)c1cccc(SCc2ccc(-c3cc(OC)ccc3F)c([C@H]3CCCC3(C)C)c2)c1 (single isomer, unassigned) [Example 82] | 6.00 to 7.00 | 5.00 to 6.00
COc1ccc(F)c(-c2cc(F)c(COc3cccc([C@@H](CC(=O)O)C4CC4)c3F)cc2[C@H]2CCCC2(C)C)c1 (single isomer, unassigned) [Example 83.2] | 7.00 to 8.00 | > 8.00
CC1(C)CCC[C@@H]1c1cc(COc2cccc([C@@H](CC(=O)O)C3CC3)c2F)ccc1-c1cc(C(F)F)ccc1F (single isomer, unassigned) [Example 83.3] | 6.00 to 7.00 | 7.00 to 8.00
COc1cc(-c2ccc(COc3cccc([C@@H](CC(=O)O)C4CC4)c3F)cc2[C@H]2CCCC2(C)C)c(F)cn1 (single isomer, unassigned) [Example 83.4] | 7.00 to 8.00 | > 8.00
COc1cc(-c2ccc(COc3cccc([C@@H](CC(=O)O)C4CC4)c3F)cc2[C@@H]2CCCC2(C)C)c(F)cn1 (single isomer, unassigned) [Example 83.5] | 6.00 to 7.00 | 7.00 to 8.00
COc1ccc(F)c(-c2ccc(COc3cccc(C(CC(=O)O)C4CC4)c3F)cc2C(C)C(C)(C)C)c1 (single isomer, unassigned) [Example 83.6] | 6.00 to 7.00 | > 8.00
COc1ccc(F)c(-c2ccc(COc3cccc(C(CC(=O)O)C4CC4)c3F)cc2C2CCCCC2(C)C)c1 (single isomer, unassigned) [Example 83.7] | 6.00 to 7.00 | > 8.00
COc1ccc(F)c(-c2ccc(COc3cccc(C(CC(=O)O)C4CC4)c3F)cc2C(OC)C(C)(C)C)c1 (single isomer, unassigned) [Example 83.8] | 6.00 to 7.00 | > 8.00
COc1ccc(F)c(-c2ccc(COc3cccc(C(CC(=O)O)C4CC4)c3F)cc2C(F)C(C)(C)C)c1 (single isomer, unassigned) [Example 83.9] | 6.00 to 7.00 | > 8.00
CCO[C@H](c1cc(COc2cccc([C@@H](CC(=O)O)C3CC3)c2F)ccc1-c1ccccc1F)C(C)(C)C (single isomer, unassigned) [Example 83.10] | 6.00 to 7.00 | 7.00 to 8.00
COCCO[C@H](c1cc(COc2cccc([C@@H](CC(=O)O)C3CC3)c2F)ccc1-c1ccccc1F)C(C)(C)C (single isomer, unassigned) [Example 83.11] | 6.00 to 7.00 | 7.00 to 8.00
CC1(C)CCC=C1c1cc(COc2cccc([C@@H](CC(=O)O)C3CC3)c2F)ccc1-c1cc(C(F)F)ccc1F (single isomer, unassigned) [Example 83.12, (3S)-3-Cyclopropyl-3-(3-(((5′-(difluoromethyl)-2-(5,5-dimethyl-1-cyclopenten-1-yl)-2′-fluoro-1,1′-biphenyl-4-yl)methyl)oxy)-2-fluorophenyl)propanoic acid or (3R)-3-cyclopropyl-3-(3-(((5′-(difluoromethyl)-2-(5,5-dimethyl-1-cyclopenten-1-yl)-2′-fluoro-1,1′-biphenyl-4-yl)methyl)oxy)-2-fluorophenyl)propanoic acid] | 6.00 to 7.00 | 7.00 to 8.00
COc1ccc(F)c(-c2ccc(COc3cccc(C(CC(=O)O)C4CC4)c3F)cc2C2=CCCC2(C)C)c1 (single isomer, unassigned) [Example 83.14, (3S)-3-Cyclopropyl-3-(3-(((2-(5,5-dimethyl-1-cyclopenten-1-yl)-2′-fluoro-5′-(methyloxy)-1,1′-biphenyl-4-yl)methyl)oxy)-2-fluorophenyl)propanoic acid or (3R)-3-cyclopropyl-3-(3-(((2-(5,5-dimethyl-1-cyclopenten-1-yl)-2′-fluoro-5′-(methyloxy)-1,1′-biphenyl-4-yl)methyl)oxy)-2-fluorophenyl)propanoic acid] | 6.00 to 7.00 | > 8.00
COc1ccc(F)c(-c2ccc(COc3cccc(C(CC(=O)O)C4CC4)c3F)cc2CC(C)(C)C)c1 (single isomer, unassigned) [Example 83.15, (3S)-3-Cyclopropyl-3-(3-(((2-(2,2-dimethylpropyl)-2′-fluoro-5′-(methyloxy)-1,1′-biphenyl-4-yl)methyl)oxy)-2-fluorophenyl)propanoic acid or (3R)-3-cyclopropyl-3-(3-(((2-(2,2-dimethylpropyl)-2′-fluoro-5′-(methyloxy)-1,1′-biphenyl-4-yl)methyl)oxy)-2-fluorophenyl)propanoic acid] | 6.00 to 7.00 | > 8.00
COc1ccc(F)c(-c2cc(F)c(COc3cccc(C(CC(=O)O)C4CC4)c3F)cc2C2=CCCC2(C)C)c1 (single isomer, unassigned) [Example 83.16, (3S)-3-Cyclopropyl-3-(3-(((2-(5,5-dimethyl-1-cyclopenten-1-yl)-2′,5-difluoro-5′-(methyloxy)-1,1′-biphenyl-4-yl)methyl)oxy)-2-fluorophenyl)propanoic acid or (3R)-3-cyclopropyl-3-(3-(((2-(5,5-dimethyl-1-cyclopenten-1-yl)-2′,5-difluoro-5′-(methyloxy)-1,1′-biphenyl-4-yl)methyl)oxy)-2-fluorophenyl)propanoic acid] | 6.00 to 7.00 | 7.00 to 8.00
COc1ccc(F)c(-c2c(F)cc(COc3cccc([C@@H](CC(=O)O)C4CC4)c3F)cc2[C@H]2CCCC2(C)C)c1 (single isomer, unassigned) [Example 83.20] | 6.00 to 7.00 | > 8.00
COc1cc(-c2ccc(COc3cccc([C@@H](CC(=O)O)C4CC4)c3F)cc2[C@@H](OC)C(C)(C)C)c(F)cn1 (single isomer, unassigned) [Example 83.21] | 7.00 to 8.00 | > 8.00
COc1ccc(F)c(-c2ccc(COc3cccc([C@@H](CC(=O)O)C4CC4)c3F)cc2[C@@H](OC)C2(C)CC2)c1 (single isomer, unassigned) [Example 83.22] | 7.00 to 8.00 | > 8.00
COc1ccc(F)c(-c2c(F)cc(COc3cccc([C@@H](CC(=O)O)C4CC4)c3F)cc2[C@@H]2CCCC2(C)C)c1 (single isomer, unassigned) [Example 83.24] | 6.00 to 7.00 | 7.00 to 8.00
CC1(C)CCC[C@@H]1c1cc(COc2cccc([C@@H](CC(=O)O)C3CC3)c2F)ccc1-c1cc(F)ccc1F (single isomer, unassigned) [Example 83.25] | 6.00 to 7.00 | 7.00 to 8.00
COc1ccc(F)c(-c2ccc(COc3cccc([C@@H](CC(=O)O)C4CC4)c3F)cc2[C@H](OC)C(C)(C)OC)c1 (single isomer, unassigned) [Example 83.26] | 6.00 to 7.00 | 7.00 to 8.00
CO[C@H](c1cc(COc2cccc([C@@H](CC(=O)O)C3CC3)c2F)ccc1-c1cc(F)ccc1F)C(C)(C)C (single isomer, unassigned) [Example 83.27] | 6.00 to 7.00 | 7.00 to 8.00
CCc1cccc(-c2ccc(COc3cccc([C@@H](CC(=O)O)C4CC4)c3F)cc2[C@H]2CCCC2(C)C)c1 (single isomer, unassigned) [Example 83.28] | 6.00 to 7.00 | 7.00 to 8.00
COc1ccc(F)c(-c2ccc(COc3cccc(C(CC(=O)O)C4CC4)c3F)cc2CN2CCCCCC2)c1 (single isomer, unassigned) [Example 83.29, (3S)-3-(3-(((2-(1-Azepanylmethyl)-2′-fluoro-5′-(methyloxy)-1,1′-biphenyl-4-yl)methyl)oxy)-2-fluorophenyl)-3-cyclopropylpropanoic acid or (3R)-3-(3-(((2-(1-Azepanylmethyl)-2′-fluoro-5′-(methyloxy)-1,1′-biphenyl-4-yl)methyl)oxy)-2-fluorophenyl)-3-cyclopropylpropanoic acid] | 5.00 to 6.00 | 6.00 to 7.00
COc1cc(-c2cc(F)c(COc3cccc([C@@H](CC(=O)O)C4CC4)c3F)cc2[C@H]2CCCC2(C)C)c(F)cn1 (single isomer, unassigned) [Example 83.34] | 7.00 to 8.00 | > 8.00
COc1ccc(F)c(-c2ccc(COc3cccc(C(CC(=O)O)CC4CC4)c3F)cc2C2CCCC2(C)C)c1 (single isomer, unassigned) [Example 84.1] | 6.00 to 7.00 | > 8.00
COc1ccc(F)c(-c2ccc(COc3cccc(C(CC(=O)O)CC4CC4)c3F)cc2C(OC)C(C)(C)C)c1 (single isomer, unassigned) [Example 84.2] | 6.00 to 7.00 | > 8.00
COc1ccc(F)c(-c2ccc(COc3cccc(C(CC(=O)O)CC4CC4)c3F)cc2C2CCCC2(C)C)c1 (single isomer, unassigned) [Example 84.3] | 6.00 to 7.00 | > 8.00
COc1ccc(F)c(-c2cc(F)c(COc3cccc(C(CC(=O)O)CC4CC4)c3F)cc2C2CCCC2(C)C)c1 (single isomer, unassigned) [Example 84.4] | 6.00 to 7.00 | > 8.00
